Laboratory results as given in ChEMBL document CHEMBL2413072, “Synthesis and in vitro anticancer studies of novel C-2 arylidene congeners of lantadenes” (2013).

Tests used:
Format in all cases: functional
K562 [1] = assay: Growth inhibition of human K562 cells assessed as cell growth at 10^-6 M by sulforhodamine B assay; details: read-out: Activity
IGROV-1 [2] = assay: Growth inhibition of human IGROV1 cells assessed as cell growth at 10^-8 M by sulforhodamine B assay; details: read-out: Activity
A549 = assay: Growth inhibition of human A549/ATCC cells by sulforhodamine B assay
COLO 205 = assay: Growth inhibition of human COLO205 cells by sulforhodamine B assay
SF-268 = assay: Growth inhibition of human SF268 cells assessed as cell growth at 10^-8 M by sulforhodamine B assay; details: read-out: Activity
LOX IMVI [3] = assay: Growth inhibition of human LOXIMVI cells assessed as cell growth at 10^-7 M by sulforhodamine B assay; details: read-out: Activity
DU-145 [4] = assay: Growth inhibition of human DU145 cells by sulforhodamine B assay
TK-10 [5] = assay: Growth inhibition of human TK10 cells assessed as cell growth at 10^-4 M by sulforhodamine B assay; details: read-out: Activity
UACC-257 = assay: Growth inhibition of human UACC257 cells assessed as cell growth at 10^-7 M by sulforhodamine B assay; details: read-out: Activity
786-0 = assay: Growth inhibition of human 786-0 cells assessed as cell growth at 10^-4 M by sulforhodamine B assay; details: read-out: Activity
U-251 = assay: Growth inhibition of human U251 cells assessed as cell growth at 10^-4 M by sulforhodamine B assay; details: read-out: Activity
CAKI-1 = assay: Growth inhibition of human CAKI-1 cells assessed as cell growth at 10^-8 M by sulforhodamine B assay; details: read-out: Activity
SF-295 = assay: Growth inhibition of human SF295 cells assessed as cell growth at 10^-8 M by sulforhodamine B assay; details: read-out: Activity
SK-OV-3 [6] = assay: Growth inhibition of human SKOV3 cells assessed as cell growth at 10^-7 M by sulforhodamine B assay; details: read-out: Activity
NCI-H322M [7] = assay: Growth inhibition of human NCI-H322M cells assessed as cell growth at 10^-7 M by sulforhodamine B assay; details: read-out: Activity
IGROV-1 [8] = assay: Growth inhibition of human IGROV1 cells assessed as cell growth at 10^-7 M by sulforhodamine B assay; details: read-out: Activity
OVCAR-5 = assay: Growth inhibition of human OVCAR5 cells by sulforhodamine B assay
OVCAR-4 = assay: Growth inhibition of human OVCAR4 cells assessed as cell growth at 10^-4 M by sulforhodamine B assay; details: read-out: Activity
LOX IMVI [9] = assay: Growth inhibition of human LOXIMVI cells assessed as cell growth at 10^-6 M by sulforhodamine B assay; details: read-out: Activity
A498 = assay: Growth inhibition of human A498 cells assessed as cell growth at 10^-7 M by sulforhodamine B assay; details: read-out: Activity
[10] = Growth inhibition of human HCC2998 cells assessed as cell growth at 10^-4 M by sulforhodamine B assay; details: HCC 2998, read-out: Activity
SW-620 [11] = assay: Growth inhibition of human SW620 cells assessed as cell growth at 10^-7 M by sulforhodamine B assay; details: read-out: Activity
K562 [12] = assay: Growth inhibition of human K562 cells assessed as cell growth at 10^-7 M by sulforhodamine B assay; details: read-out: Activity
[13] = Growth inhibition of human NCI-ADR-RES cells assessed as cell growth at 10^-4 M by sulforhodamine B assay; details: read-out: Activity
SW-620 [14] = assay: Growth inhibition of human SW620 cells assessed as cell growth at 10^-6 M by sulforhodamine B assay; details: read-out: Activity
HCT-116 = assay: Growth inhibition of human HCT116 cells assessed as cell growth at 10^-7 M by sulforhodamine B assay; details: read-out: Activity
MDA-MB-468 = assay: Growth inhibition of human MDA-MB-468 cells assessed as cell growth at 10^-7 M by sulforhodamine B assay; details: read-out: Activity
TK-10 [15] = assay: Growth inhibition of human TK10 cells assessed as cell growth at 10^-7 M by sulforhodamine B assay; details: read-out: Activity
RXF 393 = assay: Growth inhibition of human RXF393 cells assessed as cell growth at 10^-7 M by sulforhodamine B assay; details: read-out: Activity
BT-549 = assay: Growth inhibition of human BT549 cells assessed as cell growth at 10^-6 M by sulforhodamine B assay; details: read-out: Activity
[16] = Growth inhibition of human Hs 578T cells by sulforhodamine B assay
NCI-H322M [17] = assay: Growth inhibition of human NCI-H322M cells assessed as cell growth at 10^-4 M by sulforhodamine B assay; details: read-out: Activity
HOP-62 = assay: Growth inhibition of human HOP62 cells assessed as cell growth at 10^-8 M by sulforhodamine B assay; details: read-out: Activity
RPMI-8226 = assay: Growth inhibition of human RPMI8226 cells by sulforhodamine B assay
CCRF-CEM = assay: Growth inhibition of human CCRF-CEM cells assessed as cell growth at 10^-7 M by sulforhodamine B assay; details: read-out: Activity
HOP-92 = assay: Growth inhibition of human HOP92 cells assessed as cell growth at 10^-4 M by sulforhodamine B assay; details: read-out: Activity
DU-145 [18] = assay: Growth inhibition of human DU145 cells assessed as cell growth at 10^-7 M by sulforhodamine B assay; details: read-out: Activity
NCI-H522 = assay: Growth inhibition of human NCI-H522 cells assessed as cell growth at 10^-8 M by sulforhodamine B assay; details: read-out: Activity
SK-OV-3 [19] = assay: Growth inhibition of human SKOV3 cells by sulforhodamine B assay
TK-10 [20] = assay: Growth inhibition of human TK10 cells by sulforhodamine B assay
[21] = read-out: LC50 (the source's name)
[22] = read-out: pLC50 (the source's name) (converted)

CC1(C)C[C@@H](O)[C@]2(C(=O)O)CC[C@]3(C)C(=CC[C@@H]4[C@@]5(C)C/C(=C\C=C\c6ccccc6)C(=O)C(C)(C)[C@@H]5CC[C@]43C)[C@@H]2C1
growth at 1 µM (K562 [1]): 98%
growth at 0.01 µM (IGROV-1 [2]): 107%
GI50 (A549; read-out: GI50): 2.8 µM
CC50 (A549; [21]): 63.4 µM
TGI (A549; read-out: TGI): 11.2 µM
GI50 (A549; read-out: pGI50 (converted)): 2.82 µM
CC50 (A549; [22]): 63.1 µM
TGI (A549; read-out: pTGI (converted)): 11.2 µM
GI50 (COLO 205; read-out: GI50): 1.97 µM
LC50 (COLO 205; read-out: LC50): 6.36 µM
TGI (COLO 205; read-out: TGI): 3.54 µM
GI50 (COLO 205; read-out: pGI50 (converted)): 2 µM
LC50 (COLO 205; read-out: pLC50 (converted)): 6.31 µM
TGI (COLO 205; read-out: pTGI (converted)): 3.55 µM
growth at 0.01 µM (SF-268): 93%
growth at 0.1 µM (LOX IMVI [3]): 95%
GI50 (DU-145 [4]; read-out: GI50): 4.23 µM
CC50 (DU-145 [4]; [21]): 41.7 µM
TGI (DU-145 [4]; read-out: TGI): 14.9 µM
GI50 (DU-145 [4]; read-out: pGI50 (converted)): 4.27 µM
CC50 (DU-145 [4]; [22]): 41.7 µM
TGI (DU-145 [4]; read-out: pTGI (converted)): 14.8 µM
growth at 100 µM (TK-10 [5]): -86%
growth at 0.1 µM (UACC-257): 92%
growth at 100 µM (786-0): -85%
growth at 100 µM (U-251): -79%
growth at 0.01 µM (CAKI-1): 94%
growth at 0.01 µM (SF-295): 99%
growth at 0.1 µM (SK-OV-3 [6]): 102%
growth at 0.1 µM (NCI-H322M [7]): 96%
growth at 0.1 µM (IGROV-1 [8]): 112%
GI50 (OVCAR-5; read-out: GI50): 2.97 µM
CC50 (OVCAR-5; [21]): 33.6 µM
TGI (OVCAR-5; read-out: TGI): 10.5 µM
GI50 (OVCAR-5; read-out: pGI50 (converted)): 2.95 µM
CC50 (OVCAR-5; [22]): 33.9 µM
TGI (OVCAR-5; read-out: pTGI (converted)): 10.5 µM
growth at 100 µM (OVCAR-4): -97%
growth at 1 µM (LOX IMVI [9]): 101%
growth at 0.1 µM (A498): 78%
growth at 100 µM [10]: -93%
growth at 0.1 µM (SW-620 [11]): 97%
growth at 0.1 µM (K562 [12]): 102%
growth at 100 µM [13]: -87%
growth at 1 µM (SW-620 [14]): 91%
growth at 0.1 µM (HCT-116): 99%
growth at 0.1 µM (MDA-MB-468): 96%
growth at 0.1 µM (TK-10 [15]): 93%
growth at 0.1 µM (RXF 393): 94%
growth at 1 µM (BT-549): 100%
GI50 ([16]; read-out: GI50): 3.29 µM
CC50 [16, 21]: > 100 µM
TGI ([16]; read-out: TGI): 20.6 µM
GI50 ([16]; read-out: pGI50 (converted)): 3.31 µM
CC50 [16, 22]: > 100 µM
TGI ([16]; read-out: pTGI (converted)): 20.4 µM
growth at 100 µM (NCI-H322M [17]): -78%
growth at 0.01 µM (HOP-62): 93%
GI50 (RPMI-8226; read-out: GI50): 2.58 µM
CC50 (RPMI-8226; [21]): > 100 µM
TGI (RPMI-8226; read-out: TGI): 7.96 µM
GI50 (RPMI-8226; read-out: pGI50 (converted)): 2.57 µM
CC50 (RPMI-8226; [22]): > 100 µM
TGI (RPMI-8226; read-out: pTGI (converted)): 7.94 µM
growth at 0.1 µM (CCRF-CEM): 102%
growth at 100 µM (HOP-92): -76%
growth at 0.1 µM (DU-145 [18]): 104%
growth at 0.01 µM (NCI-H522): 89%
GI50 (SK-OV-3 [19]; read-out: GI50): 3.81 µM
CC50 (SK-OV-3 [19]; [21]): 46.4 µM
TGI (SK-OV-3 [19]; read-out: TGI): 14.8 µM
GI50 (SK-OV-3 [19]; read-out: pGI50 (converted)): 3.8 µM
CC50 (SK-OV-3 [19]; [22]): 46.8 µM
TGI (SK-OV-3 [19]; read-out: pTGI (converted)): 14.8 µM
GI50 (TK-10 [20]; read-out: GI50): 3.71 µM
CC50 (TK-10 [20]; [21]): 42.4 µM
TGI (TK-10 [20]; read-out: TGI): 12.8 µM
GI50 (TK-10 [20]; read-out: pGI50 (converted)): 3.72 µM
CC50 (TK-10 [20]; [22]): 42.7 µM
TGI (TK-10 [20]; read-out: pTGI (converted)): 12.9 µM
